{"source": "patent US10130590B2", "about": "“Methods of treating cancer with atovaquone-related compounds” (DANA-FARBER CANCER INSTITUTE, INC., priority 2013, dated 2018)", "key": {"gp130": {"test_system": "gp130", "assay": "Flow cytometry of cell-surface gp130", "assay_type": "cell-based", "description": "Annexin V/PI staining was performed using Annexin V:FITC Apoptosis Detection Kit I (BD Biosciences). Staining for cell cycle analysis was performed as previously described (267). Staining for cell-surface receptors was performed in 50 μl PBS+2% FBS with 2 μl antibody to IL6R (BioLegend #352803) or 5 μl antibody to gp130 (BD Biosciences #555757) for 20 minutes on ice in the dark. Cells were washed twice, then resuspended in 300 μl of the same buffer. Samples were analyzed on a BD FACSCanto II machine. Transfection and siRNA Cells were reverse-transfected using Lipofectamine RNAiMAX (Invitrogen); the culture medium was changed 24 hours later. Control siRNA (D-001210-02) and REDD1 siRNA (M-010855-01) were from Thermo Scientific Dharmacon.\nSince atovaquone reduced gp130 expression at the cell surface, it was asked whether this effect was accompanied by reduced total gp130 in the cell. To address this question, a time course of atovaquone treatment was performed and total cellular gp130 was measured by Western blotting in U266 cells treated with atovaquone at 20 μM. […] Thus, it was surmised that atovaquone also rapidly downregulates cell-surface gp130, paralleling STAT3 inhibition and preceding the decrease in total gp130. […] Loss of cell-surface gp130 may be due to decreased entry into the plasma membrane or increased internalization. In either case, the decrease in total gp130 observed at longer time points is likely due to degradation of relatively unstable intracellular gp130."}, "[1]": {"test_system": "non-malignant peripheral blood mononuclear cells (PBMC)", "assay": "Cell viability (Cell Titer Glo), PBMC", "assay_type": "cell-based", "settings": "72 hours, healthy donors", "description": "Mouse embryonic fibroblasts (MEFs) were cultured in DMEM+10% FBS. TSC2-null (see, Zhang et al. J Clin Invest. 2003; 112(8):1223-1233) and REDD1-null (see, Sofer et al. Mol. Cell. Biol. July 2005 vol. 25 no. 14 5834-5845) MEFs, along with MEFs from the littermate controls, were kind gifts from Dr. John Blenis and Dr. Leif Ellisen, respectively. HEL (see, Iwama et al. Mol. Cell. Biol. June 1999 vol. 19 no. 6 3940-3950) was a kind gift of Dr. Daniel G. Tenen and grown in RPMI-1640+10% FBS. OCI-AML2 and OCI-AML3 (see, Grunberger et al. Blood Dec. 1, 2003 vol. 102 no. 12 4153-4158), and MOLM-13 (German Collection of Microorganisms and Cell Cultures (DSMZ, Braunschweig, Germany)) were kind gifts of Dr. James D. Griffin and grown in RPMI-1640+10% FBS. MM.1S (ATCC) was a kind gift of Dr. Kenneth C. Anderson and grown in RPMI-1640+10% FBS. SET2 (see, Koppikar et al. Nature 489, 155-159 (6 Sep. 2012)) was a kind gift of Dr. Ross L. Levine and grown in RPMI-1640+10% FBS. HL60 (ATCC) was a kind gift of Dr. James D. Griffin and grown in RPMI-1640+10% FBS. […] Molecular Pharmacology 78(5):903-908; and Walker S R, et al. (2009) Reciprocal effects of STAT5 and STAT3 in breast cancer. Molecular Cancer Research: MCR 7(6):966-976). Peripheral blood mononuclear cells (PBMCs) were isolated from healthy donors by Ficoll density gradient centrifugation and maintained in RPMI-1640+10% FBS. […]"}}, "data": [{"compound": "O=C1C(O)=C([C@H]2CC[C@H](c3ccc(Cl)cc3)CC2)C(=O)c2ccccc21", "note": "[atovaquone, trans-2-[4-(4-chlorophenyl)cyclohexyl]-3-hydroxy-1,4-naphthalenedione]", "values": [{"measurement": "cell surface gp130 in INA-6 and HEL cells", "setting": "gp130; INA-6 20 μM 4 hours, HEL 25 μM 6 or 16 hours", "result": "induced downregulation of cell surface gp130"}, {"measurement": "cell-surface expression of gp130, flow cytometric time course", "setting": "gp130; U266, 20 μM", "result": "rapidly inhibits the cell-surface expression of gp130"}, {"measurement": "cell-surface expression of gp130", "setting": "gp130; U266, 2.5 hours, atovaquone 20 μM, JAK inhibitor 1 1 μM, brefeldin A 3 μg/ml", "result": "substantially downregulated the cell-surface expression of gp130"}, {"measurement": "viability of PBMC", "setting": "[1]", "result": "relatively preserved"}]}]}
